# From patent US5512478A, “Genes and enzymes involved in the microbial degradation of pentachlorophenol” (Idaho Research Foundation, Inc., priority 1994, dated 1996)
# Read-outs that look alike come from different tables or passages of the source.
# How the values were obtained:
# PcpB [1] = biological target: T1, PcpB (Sphingobium chlorophenolicum, UniProt P42535); experiment: Substrate disappearance in the presence of PcpB (substrate range); type: biochemical, Flavobacterium sp. Strain ATCC 39723; settings: for (%) Relative Activity (substrate disappearance in the presence of PcpB): 10 nmoles substrate, 40 nmoles NADPH, PcpB 500 μg/ml, 80 mM potassium phosphate pH 7.5, 0.5% Tween 20, 23° C., PCP assumed 100%; for End Products of PcpB reaction: HPLC or GC/MS analysis
# T1 construct: endogenous in cells; host or cells: Flavobacterium sp; Strain ATCC 39723, PCP-induced; enzyme purified in house from the native bacterium
# T1 sequence (P42535 2-538): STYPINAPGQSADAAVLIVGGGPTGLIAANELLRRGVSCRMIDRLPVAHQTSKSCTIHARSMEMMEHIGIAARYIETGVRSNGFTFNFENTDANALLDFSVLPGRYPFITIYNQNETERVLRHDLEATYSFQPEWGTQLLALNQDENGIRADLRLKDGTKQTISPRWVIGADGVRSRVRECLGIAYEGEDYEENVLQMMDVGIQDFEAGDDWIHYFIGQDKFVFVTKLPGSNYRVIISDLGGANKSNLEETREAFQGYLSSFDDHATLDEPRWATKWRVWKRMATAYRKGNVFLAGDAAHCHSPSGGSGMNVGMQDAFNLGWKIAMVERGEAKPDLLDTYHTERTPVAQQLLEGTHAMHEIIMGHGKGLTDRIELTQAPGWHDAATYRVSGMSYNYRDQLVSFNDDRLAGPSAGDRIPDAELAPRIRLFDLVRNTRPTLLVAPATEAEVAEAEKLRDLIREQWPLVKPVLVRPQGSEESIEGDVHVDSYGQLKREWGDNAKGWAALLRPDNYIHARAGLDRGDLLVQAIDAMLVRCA
# Protocol: A stock solution of PCP (concentration, 37.6 mM) was prepared in 0.2M NaOH and stored in the dark at room temperature. Stock solutions of all other halogenated aromatic compounds (concentration, 20 mM) were prepared in absolute ethanol and stored at 4° C. in the dark. The NADPH solution of 10 mM was freshly prepared in 1 mM dithiothreitol and 1 mM Tris base (pH 13).
# PcpB was purified as described above. Enzyme reactions were conducted in 80 mM potassium phosphate buffer (pH 7.5) with 0.5% Tween 20 at 23° C. The enzyme concentration was 500 μg/ml in all reactions.
# All of the aromatic substrates and the corresponding enzyme product (aromatic portion) were monitored by reverse phase high-performance liquid chromatography (HPLC) analysis as described above for PCP and TeCH analysis, except that the absorptions at 285, 300, and 310 nm were recorded by using a Waters 490 E programmable multiwavelength UV detector. Gas chromatography/mass spectrometry (GC/MS) analysis was done as previously described (Topp and Akhtar, 1990).
# I^- was measured by the Leuco crystal violet assay described above. NO2 was colorimetrically measured using the N-(1-naphthyl) ethylenediamine dihydrochloride-sulfanilamide reagent method (American Public Health Association, 17th Ed., 1989). NH3 was colorimetrically measured by Nesslerization method (American Public Health Association, 17th Ed., 1989). CN was measured by the colorimetric method of Nagashima (1984). NH2 OH was measured by the method of Magee and Burris (1954).
# ^a All enzyme reactions were conducted in a reaction mix volume of 10
# μl, containing 10 nmoles of substrate, 40 nmoles of NADPH. The
# substrate depletion and product production were measured by HPLC or GC/MS
# analysis. Relative enzyme activity for PCP was assumed to be 100%; the
# relative enzyme activities for other compounds were compared with that fo
# PcpB [2] = biological target: T1, PcpB; settings: GC/MS; cited from earlier work
# PcpB [3] = biological target: T1, PcpB; experiment: PCP degradation as an assay of PcpB activity (HPLC); type: biochemical, Flavobacterium sp. Strain ATCC 39723
# Protocol: PcpB activity was assayed by measuring the depletion of PCP and/or the production of TECH. […] MgSO4 was later determined not to enhance the activity of the purified enzyme. Tween 20 was determined to facilitate reproducible quantitation of PCP by high-performance liquid chromatography (HPLC) analysis as described below. A 10 μl volume of reaction mixture was injected onto the HPLC column at 4 min. after the start of the reaction. One unit of enzyme activity was defined as the amount of enzyme that catalyzed the production of 1 μmol of TeCH or the consumption of 1 μmol of PCP per min under the assay conditions. The reaction rate was linear for about 5 min. with […] of the enzyme, and then the reaction rate decreased gradually over the next 15 min.
# PCP and TeCH were analyzed by HPLC (Waters, Milford, Mass.) on a Nova-Pak C18 column (3.9 by 150 mm) with an 11 mM H3 PO4 -acetonitrile gradient (acetonitrile concentrations 10 to 65% 5 min.! and 65% 10 min.!). Maximum absorption at 310, 320, and 330 nm was recorded by use of a Waters 490E programmable multiwavelength UV detector connected to a Maxima NEC computer workstation (Waters). The retention times of PCP and TeCH were 11.5 and 8.9 min., respectively. PCP and TeCH were quantified by comparing their peak areas with the peak areas of authentic standards. NADPH concentration in the reaction mixture was measured by HPLC on the Nova-Pak C18 column with an isocratic 50 mM KPi buffer (ph 8.0). Flavins were determined by HPLC on a μCarbohydrate analyzing column (3.9 by 300 mm) (Analytical Sciences Incorporated, Santa Clara, Calif.) with an isocratic solution of acetonitrile-distilled water (60:40, vol/vol). Protein purity was checked by HPLC on a Delta Pak C18 30 nm column (3.9 by 150 mm) with a water-acetonitrile gradient containing 0.1% trifluoroacetic acid (acetonitrile concentrations, 15% 1 min.!, 15 to 40% 1 min.!, 40% 2 min.!, 40 to 75% 8 min.!, 75 to 100% 1 min.!, 100% 7 min.!, 100 to 15% 1 min.!) at a flow rate of 1 ml/min. […]
# and incubated at room temperature for 4 min. before being analyzed by […]
# [4] = Stability of TeCH in the PcpB reaction mixture; type: physicochemical
# PcpC = biological target: T2, PcpC (Sphingobium chlorophenolicum, UniProt Q03520); type: biochemical, Flavobacterium sp. Strain ATCC 39723; settings: 33 μg of purified enzyme per ml; GC-MS of ether extract
# T2 construct: endogenous in cells; host or cells: Flavobacterium sp; Strain ATCC 39723, PCP-induced; enzyme purified in house from the native bacterium
# T2 sequence (Q03520 2-248): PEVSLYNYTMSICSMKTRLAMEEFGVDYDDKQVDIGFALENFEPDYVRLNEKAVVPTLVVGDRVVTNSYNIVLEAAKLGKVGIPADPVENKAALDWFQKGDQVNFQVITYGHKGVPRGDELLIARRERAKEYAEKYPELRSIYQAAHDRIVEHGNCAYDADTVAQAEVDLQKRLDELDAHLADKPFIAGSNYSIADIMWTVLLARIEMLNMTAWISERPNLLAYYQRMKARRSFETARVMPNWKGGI
# Protocol: Enzymatic activity assay. The reaction mixture contained 50 mM KPi buffer (pH 7.4), 0.4% Tween 20 (Sigma), 100 μM of TeCH, and 1 mM ascorbic acid. All the reactions were incubated at 23° C. in an anaerobic chamber containing an atmosphere of 85% N2, 5% CO2, and 10% H2 (Coy Laboratory Products Inc., Ann Arbor, Mich.). The reactions were stopped by addition of an equal volume of acetonitrile to the reaction mixture. TeCH stock solution (20 mM) was prepared in absolute ethanol. NADPH and NADH stock solutions (10 mM) were freshly prepared in 1 mM Tris buffer (pH 13) with 1 mM dithiothreitol. […]
# Analytical method. […] TeCH, TrCH and DiCH were analyzed by HPLC on a Nova-Pak C-18 column (3.9 by 150 mm) (Waters, Milford, Mass.) with an 11 mM H3 PO4 -acetonitrile gradient as described above. Maximum absorption at 285, 300, 310 nm was recorded by using a Waters 490E programmable multiwave-length UV detector connected to a Maxima NEC computer workstation (Waters). […] TeCH and DiCH in the reaction mixtures were identified and quantified by comparison of their retention time and peak areas with that of authentic standards, respectively. TrCH was extracted with diethyl ether from the reaction mixture and analyzed by gas chromatography/mass spectrometry (GC/MS) as described by Topp and Akhtar (1990). […] GSH and the oxidized form of glutathione (GS-SG) were detected by the enzymatic method of Tietze (1969).
structure (smiles),measurement,setting,value
"Oc1ccc(Cl)c(Cl)c1Cl [2,3,4-Trichlorophenol]",(%) Relative Activity (substrate disappearance in the presence of PcpB),PcpB [1],29%
"Oc1c(Cl)c(Cl)cc(Cl)c1Cl [2,3,5,6-Tetrachlorophenol]",(%) Relative Activity (substrate disappearance in the presence of PcpB),PcpB [1],1212%
same,End Products of PcpB reaction,PcpB [1],TeCH
"Oc1c(Cl)ccc(Cl)c1Cl [2,3,6-Trichlorophenol, 2,3,6-trichlorophenol]",(%) Relative Activity (substrate disappearance in the presence of PcpB),PcpB [1],302%
same,End Products of PcpB reaction,PcpB [1],"2,3,6-trichloro-p-hydroquinone"
"Oc1cccc(Cl)c1Cl [2,3-Dichlorophenol]",(%) Relative Activity (substrate disappearance in the presence of PcpB),PcpB [1],24%
"Oc1c(Br)cc(Br)cc1Br [2,4,6-Tribromophenol]",(%) Relative Activity (substrate disappearance in the presence of PcpB),PcpB [1],35%
"Oc1c(Cl)cc(Cl)cc1Cl [2,4,6-Trichlorophenol, 2,4,6-trichlorophenol]",(%) Relative Activity (substrate disappearance in the presence of PcpB),PcpB [1],29%
same,End Products of PcpB reaction,PcpB [1],"2,6-dichloro-p-hydroquinone"
"Oc1c(I)cc(I)cc1I [2,4,6-Triiodophenol]",(%) Relative Activity (substrate disappearance in the presence of PcpB),PcpB [1],172%
same,End Products of PcpB reaction,PcpB [1],"2,6-diiodo-p-hydroquinone"
"O=[N+]([O-])c1cc(Br)c(O)c(Br)c1 [2,6-Dibromo-4-nitrophenol]",(%) Relative Activity (substrate disappearance in the presence of PcpB),PcpB [1],62%
"Oc1c(Br)cccc1Br [2,6-Dibromophenol]",(%) Relative Activity (substrate disappearance in the presence of PcpB),PcpB [1],605%
"Oc1c(Cl)cccc1Cl [2,6-Dichlorophenol, 2,6-dichlorophenol]",(%) Relative Activity (substrate disappearance in the presence of PcpB),PcpB [1],344%
same,End Products of PcpB reaction,PcpB [1],"2,6-dichloro-p-hydroquinone"
"Oc1cc(Cl)c(Cl)c(Cl)c1 [3,4,5-Trichlorophenol, 3,4,5trichlorophenol]",(%) Relative Activity (substrate disappearance in the presence of PcpB),PcpB [1],0%
same,End Products of PcpB reaction,PcpB [1],None
"N#Cc1cc(Br)c(O)c(Br)c1 [3,5-Dibromo-4-hydroxybenzonitrile]",End Products of PcpB reaction (from Topp et al.),PcpB [2],"2,6-dibromo-p-hydroquinone"
same,(%) Relative Activity (substrate disappearance in the presence of PcpB),PcpB [1],591%
"Oc1cc(Cl)cc(Cl)c1 [3,5-Dichlorophenol, 3,5dichlorophenol]",(%) Relative Activity (substrate disappearance in the presence of PcpB),PcpB [1],0%
same,End Products of PcpB reaction,PcpB [1],None
"N#Cc1cc(I)c(O)c(I)c1 [3,5-Diiodo-4-hydroxybenzonitrile]",(%) Relative Activity (substrate disappearance in the presence of PcpB),PcpB [1],835%
same,End Products of PcpB reaction,"PcpB [1]; listed as 3,5-diiodo-4-hydroxylbenzonitrile",DIHQ
"Nc1cc(Cl)c(O)c(Cl)c1 [4-Amino-2,6-dichlorophenol]",(%) Relative Activity (substrate disappearance in the presence of PcpB),PcpB [1],93%
O=C(O)CN(CCN(CC(=O)O)CC(=O)O)CC(=O)O [EDTA],influence of additive on activity of purified PcpB,PcpB [3],did not influence the enzymatic activity
O=S(=O)([O-])[O-].[Mg+2] [MgSO4],influence of additive on activity of purified PcpB,PcpB [3]; addition to 5 mM,did not influence the enzymatic activity
Oc1c(Cl)c(Cl)c(Cl)c(Cl)c1Cl [Pentachlorophenol],(%) Relative Activity (substrate disappearance in the presence of PcpB),PcpB [1],100%
same,End Products of PcpB reaction,PcpB [1]; listed as PCP,TeCH
same,Conversion of PCP to TeCH by purified PcpB,"PcpB [3]; 37 μM PCP, 100 mM KPi buffer (pH 7.0), 100 μM NADPH, within 20 min.",completely converted
Oc1c(F)c(F)c(F)c(F)c1F [Pentafluorophenol],(%) Relative Activity (substrate disappearance in the presence of PcpB),PcpB [1],47%
"Oc1c(Cl)c(Cl)c(O)c(Cl)c1Cl [TeCH, 2,3,5,6-tetrachloro-p-hydroquinone]",stability of TeCH,[4]; optimal pH conditions (7.5 to 9.0),highly unstable
same,stability of TeCH,[4]; pH lower than 7.5,relatively stable
same,product of TeCH conversion by TeCH reductive dehalogenase,PcpC,DiCH
Oc1ccccc1 [phenol],Extent of oxidation/degradation by the enzyme,PcpB [1],not degraded
